Laboratory results reported in US20260035338A1, “AMINO LIPID COMPOUND AND LIPID NANOPARTICLE FOR DELIVERING BIOACTIVE INGREDIENT” (SHENZHEN SHENXIN BIOTECHNOLOGY CO., LTD., priority 2022, published 2026).

How the values were obtained:
BALB/c mice = experiment: In vivo delivery of Fluc mRNA-encapsulating LNP formulations, luciferase signal by In Vivo Imaging System (IVIS); settings: tail vein injection (IV) 70 μL, female BALB/c mice, 6 hours after injection; for Average number of photons (Total in-vivo flux): LNP formulation encapsulating Fluc mRNA (Lipid:DSPC:CHO-HP:M-DMG-2000 48:10:40.5:1.5); for Average number of photons (Liver) / Average number of photons (Spleen): LNP formulation encapsulating Fluc mRNA
Procedure: Animal preparation: Female BALB/c mice of 6-8 weeks old were selected and raised in an SPF grade breeding room. Animal testing was conducted in strict accordance with the guidelines of national health institutions and animal ethics requirements.
In vivo Delivery: prior to injection of the test LNP formulation, the LNP formulation was gently and repeatedly inverted to thoroughly mix the sample of the formulation. A corresponding amount of the LNP formulation was aspirated with a 1 ml insulin syringe, and the LNP formulation was injected by tail vein injection (IV), with 3 mice in duplicate per formulation. Each mouse was injected with 70 μL of the corresponding LNP formulation encapsulating the luciferase mRNA (Fluc mRNA) prepared in Experimental Example 1.
6 hours after injection of LNP formulations, mice were injected with 200 μL D-Luciferin luciferase developing substrate (Catalog No. 122799; Manufacturer: Perkin Elmer). After the substrate was injected, the mice were anesthetized with isoflurane inhalation, and the injection time of luciferase developing substrate was recorded.
The encapsulation efficiency of the lipid nanoparticle encapsulating luciferase mRNA (Fluc mRNA) with a representative amino lipid compound and the fluorescence expression intensity induced by the same are shown in Table 4, with the LNP formulation containing SM-102, 1001 or ALC-0315 as a control LNP formulation. The preparation method of the control LNP formulation was basically the same as that of the LNP formulations in Experimental Example 1, with the difference lying in that the amino lipid compounds of the present disclosure were replaced with SM-102, 1001 or ALC-0315 in the preparation of the control LNP formulation.

[1] = system: immune cell populations in the spleen and PBMC; experiment: Delivery efficiency of eGFP mRNA LNP to immune cell populations in spleen and peripheral blood (flow cytometry); format: in vivo; settings: eGFP mRNA encapsulating LNP, intravenous, C57BL/6 mice, 12 hours, flow cytometry (FIG. 6 to 7)
Procedure: C57BL/6 mice (3 mice per group) were intravenously injected with eGFP mRNA encapsulating LNP. After 12 hours, the mice were dissected, and the spleen and peripheral blood, were collected to prepare single-cell suspensions of various tissues and organs. After blocking with Fc blocking antibodies and surface staining with fluorescent-labeled antibodies, flow cytometry was conducted to analyze the expression levels of eGFP in various immune cell populations to confirm the delivery efficiency of lipid nanoparticles comprising different amino lipid compounds to immune cell populations in different tissues and organs.
“Blank” in FIG. 6 and FIG. 7 refers to the control group injected with 100 μL Tris buffer.

CCCCCCOC(CCCOC(=O)CCCCCCCCC(CCCCCCCCC(=O)OCCCC(OCCCCCC)OCCCCCC)OC(=O)OCCCN(CC)CC)OCCCCCC [compound 382]
Average number of photons (Total in-vivo flux) (BALB/c mice): 5.28E+07 | Average number of photons (Liver) (BALB/c mice): 6.78E+06 | Average number of photons (Spleen) (BALB/c mice): 1.88E+05 | delivery efficiency to immune cell populations (eGFP expression) [1]: different delivery preferences to different immune cells

CCCCCCOC(CCCOC(=O)CCCCCCCCC(CCCCCCCCC(=O)OCCCC(OCCCCCC)OCCCCCC)OC(=O)OCCCN(C)C)OCCCCCC [compound 388]
Average number of photons (Total in-vivo flux) (BALB/c mice): 1.94E+08 | Average number of photons (Liver) (BALB/c mice): 3.66E+07 | Average number of photons (Spleen) (BALB/c mice): 1.34E+06 | delivery efficiency to immune cell populations (eGFP expression) [1]: different delivery preferences to different immune cells

CCCCCCCCCOC(CCCOC(=O)CCCCCCCCC(CCCCCCCCC(=O)OCCCC(OCCCCCC)OCCCCCC)OC(=O)OCCCN(CC)CC)OCCCCCCCCC (stereo not shown) [compound 867]
Average number of photons (Total in-vivo flux) (BALB/c mice): 2.15E+07 | Average number of photons (Liver) (BALB/c mice): 4.12E+06 | Average number of photons (Spleen) (BALB/c mice): 1.36E+05

CCCCCCCCOC(CCCOC(=O)CCCCCCCCC(CCCCCCCCC(=O)OCCCC(OCCCCCCC)OCCCCCCC)OC(=O)OCCCN(CC)CC)OCCCCCCCC (stereo not shown) [compound 868]
Average number of photons (Total in-vivo flux) (BALB/c mice): 3.04E+07 | Average number of photons (Liver) (BALB/c mice): 5.35E+06 | Average number of photons (Spleen) (BALB/c mice): 1.74E+05

CCCCCCCCCOC(CCCOC(=O)CCCCCCCCC(CCCCCCCCC(=O)OCCCC(OCCCCCCC)OCCCCCCCC)OC(=O)OCCCN(CC)CC)OCCCCCCCCC (stereo not shown) [compound 869]
Average number of photons (Total in-vivo flux) (BALB/c mice): 1.22E+07 | Average number of photons (Liver) (BALB/c mice): 2.15E+06 | Average number of photons (Spleen) (BALB/c mice): 5.40E+04

CCCCC/C=C\C/C=C\CCCCCCCC(=O)OCC(COC(=O)CCC(OCCCCCCCC)OCCCCCCCC)COC(=O)OCCCN(CC)CC (stereo not shown) [compound 1001, reference compound]
Average number of photons (Total in-vivo flux) (BALB/c mice): 9.68E+07 | Average number of photons (Liver) (BALB/c mice): 9.38E+06 | Average number of photons (Spleen) (BALB/c mice): 1.65E+07

CCCCC/C=C\C/C=C\CCCCCCCC(=O)OCC(COC(=O)OCCCC(OCCCCCCCC)OCCCCCCCC)COC(=O)OCCCN(CC)CC (stereo not shown) [compound 1246]
Average number of photons (Total in-vivo flux) (BALB/c mice): 4.92E+07 | Average number of photons (Liver) (BALB/c mice): 6.85E+06 | Average number of photons (Spleen) (BALB/c mice): 3.83E+06

CCCCC/C=C\C/C=C\CCCCCCCC(=O)OCC(COCCCCC(OCCCCCCCC)OCCCCCCCC)COC(=O)OCCCN(CC)CC (stereo not shown) [compound 1248]
Average number of photons (Total in-vivo flux) (BALB/c mice): 8.20E+07 | Average number of photons (Liver) (BALB/c mice): 1.79E+07 | Average number of photons (Spleen) (BALB/c mice): 3.48E+06

CCCCCCOC(CCC(=O)OCC(COC(=O)CCC(OCCCCCC)OCCCCCC)COC(=O)OCCCN(C)C)OCCCCCC [compound 2021]
Average number of photons (Total in-vivo flux) (BALB/c mice): 4.49E+06 | Average number of photons (Liver) (BALB/c mice): 1.19E+06 | Average number of photons (Spleen) (BALB/c mice): 1.04E+06

CCCCCCOC(CCOC(=O)CCCCCCCCC(CCCCCCCCC(=O)OCCC(OCCCCCC)OCCCCCC)OC(=O)OCCCN(C)C)OCCCCCC [compound 2035]
Average number of photons (Total in-vivo flux) (BALB/c mice): 1.49E+08 | Average number of photons (Liver) (BALB/c mice): 3.12E+07 | Average number of photons (Spleen) (BALB/c mice): 7.61E+05

CCCCCCOC(CCCCOC(=O)CCCCCCCCC(CCCCCCCCC(=O)OCCCCC(OCCCCCC)OCCCCCC)OC(=O)OCCCN(C)C)OCCCCCC [compound 2036]
Average number of photons (Total in-vivo flux) (BALB/c mice): 5.60E+07 | Average number of photons (Liver) (BALB/c mice): 1.04E+07 | Average number of photons (Spleen) (BALB/c mice): 5.75E+05

CCCCCCOC(CCCOC(=O)CCCCCC(CCCCCC(=O)OCCCC(OCCCCCC)OCCCCCC)OC(=O)OCCCN(C)C)OCCCCCC [compound 2039]
Average number of photons (Total in-vivo flux) (BALB/c mice): 2.05E+08 | Average number of photons (Liver) (BALB/c mice): 4.26E+07 | Average number of photons (Spleen) (BALB/c mice): 3.75E+07 | delivery efficiency to immune cell populations (eGFP expression) [1]: different delivery preferences to different immune cells

CCCCCCOC(CCCOC(=O)CCCCCCC(CCCCCCC(=O)OCCCC(OCCCCCC)OCCCCCC)OC(=O)OCCCN(C)C)OCCCCCC [compound 2040]
Average number of photons (Total in-vivo flux) (BALB/c mice): 1.53E+08 | Average number of photons (Liver) (BALB/c mice): 2.97E+07 | Average number of photons (Spleen) (BALB/c mice): 1.11E+07

CCCCCCOC(CCCOC(=O)CCCCCCCC(CCCCCCCC(=O)OCCCC(OCCCCCC)OCCCCCC)OC(=O)OCCCN(C)C)OCCCCCC [compound 2041]
Average number of photons (Total in-vivo flux) (BALB/c mice): 2.08E+08 | Average number of photons (Liver) (BALB/c mice): 4.16E+07 | Average number of photons (Spleen) (BALB/c mice): 1.07E+07 | delivery efficiency to immune cell populations (eGFP expression) [1]: different delivery preferences to different immune cells

CCCCCCOC(CCCOC(=O)CCCCC(CCCCC(=O)OCCCC(OCCCCCC)OCCCCCC)OC(=O)OCCCN(CC)CC)OCCCCCC [compound 2042]
delivery efficiency to immune cell populations (eGFP expression) [1]: different delivery preferences to different immune cells

CCCCCCOC(CCCOC(=O)CCCCCC(CCCCCC(=O)OCCCC(OCCCCCC)OCCCCCC)OC(=O)OCCCN(CC)CC)OCCCCCC [compound 2043]
Average number of photons (Total in-vivo flux) (BALB/c mice): 1.64E+08 | Average number of photons (Liver) (BALB/c mice): 2.59E+07 | Average number of photons (Spleen) (BALB/c mice): 1.07E+07 | delivery efficiency to immune cell populations (eGFP expression) [1]: different delivery preferences to different immune cells

CCCCCCOC(CCCOC(=O)CCCCCCC(CCCCCCC(=O)OCCCC(OCCCCCC)OCCCCCC)OC(=O)OCCCN(CC)CC)OCCCCCC [compound 2044]
Average number of photons (Total in-vivo flux) (BALB/c mice): 4.94E+07 | Average number of photons (Liver) (BALB/c mice): 6.90E+06 | Average number of photons (Spleen) (BALB/c mice): 1.18E+06

CCCCCCOC(CCCOC(=O)CCCCCC(CCCCCC(=O)OCCCC(OCCCCCC)OCCCCCC)OC(=O)OCCCN(CC)CC)OCCCCCC [compound 2045]
Average number of photons (Total in-vivo flux) (BALB/c mice): 5.83E+07 | Average number of photons (Liver) (BALB/c mice): 8.90E+06 | Average number of photons (Spleen) (BALB/c mice): 1.89E+06 | delivery efficiency to immune cell populations (eGFP expression) [1]: different delivery preferences to different immune cells
